Measurements from patent publication US10035778B2, “Meta-azacyclic amino benzoic acid derivatives as pan integrin antagonists” (Saint Louis University, priority 2015, dated 2018).

Experiments:
[1] = IV cassette pharmacokinetic study in male Sprague-Dawley rats (Saint Louis University); type: in vivo; settings: plasma; male Sprague-Dawley rat, 1 mg/kg IV cassette, sampling to 24 h; read-out: plasma t½ after 1 mg/kg IV bolus dose in rat (converted)
Procedure: (§1) A minimally sufficient volume of dimethylsulfoxide (DMSO) was added to each test compound to achieve solubilization. For intravenous (IV) delivery, compounds were then formulated as solutions in glycerol formal: saline (either 20:80 or 40:60 v/v) (Sigma Chemicals, St. Louis). For oral (PO) administration, compounds were formulated with 0.5% methylcellulose. Five to six compound solutions were combined into a singled mixed solution for IV and PO cassette administration with final DMSO concentrations <0.6% or <1.2%, for the IV and PO cassettes, respectively. Analytes were detected in test samples using an LC/MS/MS (liquid chromatography/mass spectrometry) system consisting of an LC-20AD pump (Shimadzu, Kyoto, Japan), an HTC PAL autosampler (Leap technologies, Carrboro, N.C.), and a Sciex API-4000 mass spectrometer in ESI mode (AB Sciex, Foster City, Calif.). An Amour C18 reverse phase column (Analytical Sales and Services, Pompton Plains, N.J.) was used for chromatographic separation.
(§2) Pharmacokinetic (PK) studies conducted at Saint Louis University used male Sprague-Dawley rats with an initial body weight of 200 to 220 g. IV PK studies were performed with the following compounds: Examples 1-3 and 5-17 and comparison compounds C12-C18, C29, and C30. Animals were allowed free access to food and water. Rats were individually housed and connected to jugular vein catheters. Each cassette formulation was administered intravenously to two rats (1 mL/kg body weight). Each cassette formulation contained 5-6 compounds at 1 mg/kg in either 20:80 or 40/60 glycerol formal/saline (v/v). Blood was collected manually via the catheter into lithium-heparin tubes at 0.017, 0.083, 0.5, 1, 2, 4, 6 and 24 hours post-dose. Animals were euthanized with CO2 at the end of the experiment.
(§3) Internal standard was added to all samples at 200 ng/mL (final), as well as 150 μL of acetonitrile. Plasma samples (50 μL total volume) were diluted with control nave rat plasma as appropriate to bring the sample measurement into the linear dynamic range of the standard curve. The samples were capped and mixed on a multi-plate vortexer for 5 minutes and centrifuged for 5 minutes at 3200 rmp. The supernant was transferred to 96-well sample plate and capped for LC/MS/MS analysis. Compounds were optimized and monitored for their respective MRM transitions. The mobile phases consisted of 0.1% formic acid (aqueous) and 100% acetonitrile (organic) with an Amour C18 reverse phase column (2.1×30 mm, 5 micron) at a flow rate of 0.35 mL/min. The starting phase was 10% acetonitrile for the 0.9 minutes then increased to 90% acetonitrile over 0.4 minutes, and was maintained for an additional 0.2 minutes before returning to 10% acetonitrile over 0.4 minutes. The 10% acetonitrile was held for an additional 1.6 minutes. Peak areas were integrated using Analyst 1.5.1 (AB Sciex, Foster City, Calif.).

[2] = Oral (PO) cassette pharmacokinetic study in male Sprague-Dawley rats; type: in vivo; settings: plasma; male Sprague-Dawley rat, 2 mg/kg oral gavage cassette in 0.5% methylcellulose; read-out: AUC (0-inf) after a 2 mg/kg PO dose in rat
Procedure: as §1, §2
Oral PK studies were conducted with the following compounds: Examples 1-3 and 5-17 and comparison compounds C12, C14-16 and C29-30. The PO cassette formulations were administered via oral gavage to two rats (10 mL/kg body weight) containing 5-6 compounds per cassette. The oral dose was administered at 2 mg/kg/compound in 0.5% methylcellulose. Blood collection time points were 0.25, 0.5, 1, 2, 4, 6 and 24 hours post-dose into lithium-heparin tubes. Animals were euthanized with CO2 at the end of the experiment.
as §3

[3] = target: Recombinant human integrin α5β1 (Homo sapiens (Human), UniProt P05556+P08648); test: Solid Phase Receptor Assay (SPRA) for α5β1 function; type: binding; settings: fibronectin-coated plate
Procedure: 1. Solid Phase Receptor Assay (SPRA) for α5β1 Function
Purified human fibronectin (R&D Systems, 1918-FN) diluted to 2 μg/mL in TBS+ buffer (25 mM Tris pH 7.4, 137 mM NaCl, 2.7 mM KCl, 1 mM CaCl2, 1 mM MgCl2, 1 mM MnCl2) was added to wells (50 μL/well) of a 96-well half-well transparent microtiter plate (Greiner 675061) and incubated overnight at 4° C. Wells were washed 3 times with 150 μL TBS+ and 150 μL of blocking buffer (TBS+ with 1% bovine serum albumin, Sigma A7906) were added. The plate was incubated for 1 hr at 37° C. and then washed 3× with TBS+ buffer. Recombinant human integrin α5β1 (R&D Systems, 3230-A5) was diluted to 0.1 μg/mL in TBS+/0.1% bovine serum albumin. Compounds were diluted 1:100 into the integrin solution and then 50 μL added to empty wells of the washed fibronectin-coated plate according to a standard template with each sample repeated in triplicate. After incubation for two hours at room temperature, the plate was washed 3× with 150 μL of TBS+ buffer. To each well, 50 μl of biotinylated anti-α5 antibody (R&D Systems, BAF1864) at 0.5 μg/mL in TBS+/0.1% BSA were added and the plate covered and incubated for 1 hr at room temperature. After washing the plate 3× with 150 μL of TBS+ buffer, 50 μL of streptavidin-conjugated horseradish peroxidase (R&D Systems, DY998) diluted in TBS+ blocking buffer were added to the wells and the plate incubated for 20 min at room temperature. The plate was washed 3× with TBS+ buffer followed by 50 μL of room temperature TMB substrate (Sigma, T444) added to each well and the plate incubated for 20 min at room temperature. Plates were read by colorimetric detection at 650 nm wavelength using a Tecan Safire II plate reader. Concentration-response curves were constructed by non-linear regression (best fit) analysis, and IC50 values were calculated for each compound.

Sequence of Recombinant human integrin α5β1 (P08648 42-995): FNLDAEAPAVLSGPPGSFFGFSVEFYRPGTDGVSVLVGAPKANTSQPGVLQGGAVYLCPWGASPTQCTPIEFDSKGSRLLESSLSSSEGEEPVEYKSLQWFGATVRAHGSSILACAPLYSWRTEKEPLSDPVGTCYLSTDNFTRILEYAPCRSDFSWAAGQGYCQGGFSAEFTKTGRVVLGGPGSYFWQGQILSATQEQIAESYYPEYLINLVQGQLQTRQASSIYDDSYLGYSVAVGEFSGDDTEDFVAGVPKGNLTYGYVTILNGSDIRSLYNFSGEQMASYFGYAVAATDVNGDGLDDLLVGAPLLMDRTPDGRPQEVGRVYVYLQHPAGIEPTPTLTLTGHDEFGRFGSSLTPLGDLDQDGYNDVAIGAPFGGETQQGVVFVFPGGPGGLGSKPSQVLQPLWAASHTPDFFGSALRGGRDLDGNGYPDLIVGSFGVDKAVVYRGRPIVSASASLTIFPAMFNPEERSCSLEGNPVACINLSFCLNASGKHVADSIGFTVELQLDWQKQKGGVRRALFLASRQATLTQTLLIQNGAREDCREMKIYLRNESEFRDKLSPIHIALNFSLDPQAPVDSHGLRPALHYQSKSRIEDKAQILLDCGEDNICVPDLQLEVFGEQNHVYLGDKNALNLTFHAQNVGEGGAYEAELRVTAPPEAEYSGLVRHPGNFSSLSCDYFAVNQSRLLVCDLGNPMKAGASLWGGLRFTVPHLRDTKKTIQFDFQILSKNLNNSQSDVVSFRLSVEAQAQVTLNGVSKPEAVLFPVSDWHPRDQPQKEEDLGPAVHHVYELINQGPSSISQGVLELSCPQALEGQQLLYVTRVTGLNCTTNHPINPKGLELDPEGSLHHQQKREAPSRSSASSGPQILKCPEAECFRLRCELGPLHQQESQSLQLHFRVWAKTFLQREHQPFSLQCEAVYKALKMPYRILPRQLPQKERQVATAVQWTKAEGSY
Sequence of Recombinant human integrin α5β1 (P05556 21-728): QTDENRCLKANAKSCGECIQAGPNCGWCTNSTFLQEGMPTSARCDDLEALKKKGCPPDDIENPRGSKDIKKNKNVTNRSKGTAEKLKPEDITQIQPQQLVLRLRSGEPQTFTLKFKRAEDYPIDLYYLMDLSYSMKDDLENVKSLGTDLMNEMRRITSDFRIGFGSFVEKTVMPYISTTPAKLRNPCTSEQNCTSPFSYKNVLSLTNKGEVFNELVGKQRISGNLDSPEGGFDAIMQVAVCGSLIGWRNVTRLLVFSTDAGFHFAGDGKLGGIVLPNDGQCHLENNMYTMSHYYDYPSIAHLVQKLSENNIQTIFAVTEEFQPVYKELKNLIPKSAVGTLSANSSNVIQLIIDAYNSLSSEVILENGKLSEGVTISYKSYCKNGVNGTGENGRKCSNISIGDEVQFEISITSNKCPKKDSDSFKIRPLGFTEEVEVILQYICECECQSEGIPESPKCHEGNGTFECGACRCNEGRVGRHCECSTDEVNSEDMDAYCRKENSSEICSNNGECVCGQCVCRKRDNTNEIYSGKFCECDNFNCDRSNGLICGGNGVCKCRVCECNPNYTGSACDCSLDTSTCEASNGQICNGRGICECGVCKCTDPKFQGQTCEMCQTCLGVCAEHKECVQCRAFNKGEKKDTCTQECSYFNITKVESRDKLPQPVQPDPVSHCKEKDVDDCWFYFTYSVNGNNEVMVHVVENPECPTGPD

Compound	half-life [1]	AUC(0-inf) [2]	IC50 [3]
Cc1cc(Cl)cc([C@H](CC(=O)O)NC(=O)CNC(=O)c2cc(O)cc(NC3=NCC(O)CN3)c2)c1 (stereo partly drawn) [Example 12, (3S)-3-[3-chloro-5-methyl-phenyl)-3-(2-(3-hydroxy-5-((5-hydroxy-1,4,5,6-tetrahydropyrimidin-2-yl)amino)benzamido)acetamido)propanoic acid]	13.7 h	9110 ng·h/mL	2 nM
O=C(O)C[C@H](NC(=O)CNC(=O)c1cc(O)cc(NC2=NCC(O)CN2)c1)c1cc(F)cc(Br)c1 (stereo partly drawn) [Example 13, (3S)-3-[3-bromo-5-fluoro-phenyl)-3-(2-(3-hydroxy-5-((5-hydroxy-1,4,5,6-tetrahydropyrimidin-2-yl)amino)benzamido)acetamido)propanoic acid]	11 h	13900 ng·h/mL	0.6 nM
O=C(O)C[C@H](NC(=O)CNC(=O)c1cncc(NC2=NCC(O)CN2)c1)c1cc(Br)cc(Br)c1 (stereo partly drawn) [Example 14, (3S)-3-(3,5-dibromophenyl)-3-[[2-[[5-[(5-hydroxy-1,4,5,6-tetrahydropyrimidin-2-yl)amino]pyridine-3-carbonyl]amino]acetyl]amino]propanoic acid]	34.2 h	6500 ng·h/mL	0.6 nM
O=C(O)C[C@H](NC(=O)CNC(=O)c1cc(O)cc(NC2=NCC(O)CN2)c1)c1cc(Cl)cc(Cl)c1 (stereo partly drawn) [Example 15, (3S)-3-[3,5-dichloro-phenyl)-3-(2-(3-hydroxy-5-((5-hydroxy-1,4,5,6-tetrahydropyrimidin-2-yl)amino)benzamido)acetamido)propanoic acid]	23.8 h	15600 ng·h/mL	1 ± 0.3 nM
O=C(O)C[C@H](NC(=O)CNC(=O)c1cc(O)cc(NC2=NCC(O)CN2)c1)c1cc(Cl)cc(OC(F)(F)F)c1 (stereo partly drawn) [Example 16, (3S)-3-[3-chloro-5-(trifluoromethoxy)phenyl)-3-(2-(3-hydroxy-5-((5-hydroxy-1,4,5,6-tetrahydropyrimidin-2-yl)amino)benzamido)acetamido)propanoic acid]	3.2 h	6810 ng·h/mL	1 ± 0.4 nM
O=C(O)C[C@H](NC(=O)CNC(=O)c1cc(O)cc(NC2=NCC(O)CN2)c1)c1cc(Br)cc(OC(F)(F)F)c1 (stereo partly drawn) [Example 17, (3S)-3-(3-bromo-5-(trifluoromethoxy)phenyl)-3-(2-(3-hydroxy-5-((5-hydroxy-1,4,5,6-tetrahydropyrimidin-2-yl)amino)benzamido)acetamido)propanoic acid]	4.1 h	13100 ng·h/mL	1 ± 0.1 nM
